{
  "source": "patent US20230407243A1",
  "about": "“GENETIC PLATFORM TO INVESTIGATE THE FUNCTIONS OF BACTERIAL DRUG EFFLUX PUMPS” (priority 2022, published 2023)",
  "format_in_all_cases": "cell-based, Escherichia coli",
  "key": {"EKO-35-Pore": {"test_system": "EKO-35-Pore", "assay": "MIC susceptibility profiling, porinated strain", "outline": "(§1)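 E. coli strains carrying a genomically integrated constitutive fhuA ΔC/Δ4L pore were grown 18 h in LB at 37 °C, then diluted 1/2000 in MHB II from OD600 ~1.0. Compounds were tested in duplicate, 2-fold serial titration, for 18 h at 37 °C with shaking. MIC came from OD600 with the pre-incubation background subtracted.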"}, "EKO-35 araC::mdtEF Pore": {"test_system": "EKO-35 araC::mdtEF Pore", "assay": "MIC susceptibility profiling, porinated efflux platform", "outline": "as §1"}, "EKO-35 araC::acrB Pore": {"test_system": "EKO-35 araC::acrB Pore", "assay": "MIC susceptibility profiling, porinated efflux platform", "outline": "as §1"}, "EKO-35 araC::mdtBC Pore": {"test_system": "EKO-35 araC::mdtBC Pore", "assay": "MIC susceptibility profiling, porinated efflux platform", "outline": "as §1"}, "EKO-35 araC::acrD Pore": {"test_system": "EKO-35 araC::acrD Pore", "assay": "MIC susceptibility profiling, porinated efflux platform", "outline": "as §1"}, "[1]": {"test_system": "EKO-35 araC::acrBD408A Pore", "assay": "MIC susceptibility profiling, porinated efflux platform", "outline": "as §1"}, "EKO-35 araC::mexCD Pore": {"test_system": "EKO-35 araC::mexCD Pore", "assay": "MIC susceptibility profiling, porinated efflux platform", "outline": "as §1"}, "EKO-35 araC::macAB Pore": {"test_system": "EKO-35 araC::macAB Pore", "assay": "MIC susceptibility profiling, porinated efflux platform", "outline": "as §1"}, "EKO-35 araC::acrEF Pore": {"test_system": "EKO-35 araC::acrEF Pore", "assay": "MIC susceptibility profiling, porinated efflux platform", "outline": "as §1"}, "EKO-35 araC::emrKY Pore": {"test_system": "EKO-35 araC::emrKY Pore", "assay": "MIC susceptibility profiling, porinated efflux platform", "outline": "as §1"}, "EKO-35 araC::emrAB Pore": {"test_system": "EKO-35 araC::emrAB Pore", "assay": "MIC susceptibility profiling, porinated efflux platform", "outline": "as §1"}, "wild-type (WT) K-12-Pore": {"test_system": "wild-type (WT) K-12-Pore", "assay": "microbe, parasite or virus in culture", "details": "technical duplicate", "outline": "as §1"}, "ΔtolC-Pore": {"test_system": "ΔtolC-Pore", "assay": "microbe, parasite or virus in culture", "details": "technical duplicate", "outline": "as §1"}, "EKO-35 araC::mdtBC": {"test_system": "EKO-35 araC::mdtBC", "assay": "MIC susceptibility profiling, efflux platform", "outline": "(§2)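 Overnight LB cultures were grown at 37 °C with aeration, then washed into PBS, pH 7.4, to OD600 ~1.0. A 1/2000 dilution in MHB II was exposed to compound dilution series for 18 h at 37 °C. The MIC was taken from corrected OD600.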"}, "EKO-35 araC::acrEF": {"test_system": "EKO-35 araC::acrEF", "assay": "MIC susceptibility profiling, efflux platform", "outline": "as §2"}, "EKO-35 araC::acrBD408A": {"test_system": "EKO-35 araC::acrBD408A", "assay": "MIC susceptibility profiling, efflux platform", "outline": "as §2"}, "E. coli ΔtolC": {"test_system": "E. coli ΔtolC", "assay": "microbe, parasite or virus in culture", "details": "technical duplicate", "outline": "as §2"}, "E. coli EKO-35": {"test_system": "E. coli EKO-35", "assay": "microbe, parasite or virus in culture", "outline": "as §2"}, "[2]": {"test_system": "wild-type E. coli K-12 str. BW25113", "assay": "microbe, parasite or virus in culture", "details": "technical duplicate", "outline": "as §2"}, "[3]": {"details": "Table 14A, porinated, technical duplicate"}, "[4]": {"details": "Table 13B, non-porinated, technical duplicate"}, "[5]": {"details": "Table 13A, non-porinated, technical duplicate"}},
  "data": [
    {"compound": "N#CC(=NNc1ccc(F)c(Cl)c1)C(=O)c1ccc(Cl)cc1", "note": "[compound 15]", "values": [
      {"measurement": "Fold changes of MICs", "setting": "EKO-35-Pore; EKO-35-Pore compared to EKO-35-Pore (reference)", "result": 1, "unit": "fold"},
      {"measurement": "Minimum inhibitory concentration (MIC), Pore EKO-35", "setting": "EKO-35-Pore; Table 10, with pore, technical duplicate", "result": 320, "unit": "µg/mL"},
      {"measurement": "Minimum inhibitory concentration, EKO-35-Pore", "setting": "EKO-35-Pore; [3]", "result": 320, "unit": "µg/mL"},
      {"measurement": "Fold changes of MICs", "setting": "EKO-35 araC::mdtEF Pore; EKO-35 araC::mdtEF Pore compared to EKO-35-Pore", "result": 1, "unit": "fold"},
      {"measurement": "Minimum inhibitory concentration, EKO-35 araC::mdtEF Pore", "setting": "EKO-35 araC::mdtEF Pore; [3]", "result": 320, "unit": "µg/mL"},
      {"measurement": "Fold changes of MICs", "setting": "EKO-35 araC::acrB Pore; EKO-35 araC::acr-B Pore compared to EKO-35-Pore", "result": 1, "unit": "fold"},
      {"measurement": "Minimum inhibitory concentration, EKO-35 araC::acrB Pore", "setting": "EKO-35 araC::acrB Pore; [3]", "result": 320, "unit": "µg/mL"},
      {"measurement": "Fold changes of MICs", "setting": "EKO-35 araC::mdtBC Pore; EKO-35 araC::mdtBC Pore compared to EKO-35-Pore", "result": 1, "unit": "fold"},
      {"measurement": "Minimum inhibitory concentration", "setting": "EKO-35 araC::mdtBC Pore; EKO-35 araC::mdtBC Pore, technical duplicate", "result": 320, "unit": "µg/mL"},
      {"measurement": "Fold changes of MICs", "setting": "EKO-35 araC::acrD Pore; EKO-35 araC::acrD Pore compared to EKO-35-Pore", "result": 1, "unit": "fold"},
      {"measurement": "Minimum inhibitory concentration, EKO-35 araC::acrD Pore", "setting": "EKO-35 araC::acrD Pore; [3]", "result": 320, "unit": "µg/mL"},
      {"measurement": "Fold changes of MICs", "setting": "[1]; EKO-35 araC::acrBD408A Pore compared to EKO-35-Pore", "result": 1, "unit": "fold"},
      {"measurement": "Minimum inhibitory concentration", "setting": "[1]; EKO-35 araC::acrBD408A Pore, technical duplicate", "result": 320, "unit": "µg/mL"},
      {"measurement": "Fold changes of MICs", "setting": "EKO-35 araC::mexCD Pore; EKO-35 araC::mexCD Pore compared to EKO-35-Pore", "result": 1, "unit": "fold"},
      {"measurement": "Minimum inhibitory concentration", "setting": "EKO-35 araC::mexCD Pore; EKO-35 araC::mexCD Pore, technical duplicate", "result": 320, "unit": "µg/mL"},
      {"measurement": "Fold changes of MICs", "setting": "EKO-35 araC::macAB Pore; EKO-35 araC::macAB Pore compared to EKO-35-Pore", "result": 1, "unit": "fold"},
      {"measurement": "Minimum inhibitory concentration", "setting": "EKO-35 araC::macAB Pore; EKO-35 araC::macAB Pore, technical duplicate", "result": 320, "unit": "µg/mL"},
      {"measurement": "Fold changes of MICs", "setting": "EKO-35 araC::acrEF Pore; EKO-35 araC::acrEF Pore compared to EKO-35-Pore", "result": 1, "unit": "fold"},
      {"measurement": "Minimum inhibitory concentration, EKO-35 araC::acrEF Pore", "setting": "EKO-35 araC::acrEF Pore; [3]", "result": 320, "unit": "µg/mL"},
      {"measurement": "Fold changes of MICs", "setting": "EKO-35 araC::emrKY Pore; EKO-35 araC::emrKY Pore compared to EKO-35-Pore", "result": 1, "unit": "fold"},
      {"measurement": "Minimum inhibitory concentration", "setting": "EKO-35 araC::emrKY Pore; EKO-35 araC::emrKY Pore, technical duplicate", "result": 320, "unit": "µg/mL"},
      {"measurement": "Fold changes of MICs", "setting": "EKO-35 araC::emrAB Pore; EKO-35 araC::emrAB Pore compared to EKO-35-Pore", "result": 1, "unit": "fold"},
      {"measurement": "Minimum inhibitory concentration", "setting": "EKO-35 araC::emrAB Pore; EKO-35 araC::emrAB Pore, technical duplicate", "result": 320, "unit": "µg/mL"},
      {"measurement": "Minimum inhibitory concentration (MIC), Pore K-12", "setting": "wild-type (WT) K-12-Pore; Table 10, with pore", "result": 320, "unit": "µg/mL"},
      {"measurement": "Minimum inhibitory concentration, K-12 (WT)-Pore", "setting": "wild-type (WT) K-12-Pore; Table 14A, porinated", "result": 320, "unit": "µg/mL"},
      {"measurement": "Minimum inhibitory concentration (MIC), Pore ΔtolC", "setting": "ΔtolC-Pore; Table 10, with pore", "result": 0.625, "unit": "µg/mL"},
      {"measurement": "Minimum inhibitory concentration, ΔtolC-Pore", "setting": "ΔtolC-Pore; Table 14A, porinated", "result": 0.625, "unit": "µg/mL"},
      {"measurement": "Fold change of MICs", "setting": "EKO-35 araC::mdtBC; EKO-35 araC::mdtBC compared to EKO-35", "result": 1, "unit": "fold"},
      {"measurement": "Minimum Inhibitory Concentration, EKO-35 araC::mdtBC", "setting": "EKO-35 araC::mdtBC; [4]", "result": 320, "unit": "µg/mL"},
      {"measurement": "Fold change of MICs", "setting": "EKO-35 araC::acrEF; EKO-35 araC::acrEF compared to EKO-35", "result": 1, "unit": "fold"},
      {"measurement": "Minimum Inhibitory Concentration, EKO-35 araC::acrEF", "setting": "EKO-35 araC::acrEF; [5]", "result": 320, "unit": "µg/mL"},
      {"measurement": "Fold change of MICs", "setting": "EKO-35 araC::acrBD408A; EKO-35 araC::acrBD408A compared to EKO-35", "result": 1, "unit": "fold"},
      {"measurement": "Minimum Inhibitory Concentration, EKO-35 araC::acrBD408A", "setting": "EKO-35 araC::acrBD408A; [4]", "result": 320, "unit": "µg/mL"},
      {"measurement": "Minimum inhibitory concentration (MIC), ΔtolC", "setting": "E. coli ΔtolC; Table 10, without pore", "result": 1.25, "unit": "µg/mL"},
      {"measurement": "Minimum Inhibitory Concentration, ΔtolC", "setting": "E. coli ΔtolC; Table 13A, non-porinated", "result": 1.25, "unit": "µg/mL"},
      {"measurement": "Fold change of MICs", "setting": "E. coli EKO-35; EKO-35 compared to EKO-35 (reference)", "result": 1, "unit": "fold"},
      {"measurement": "Minimum inhibitory concentration (MIC), EKO-35", "setting": "E. coli EKO-35; Table 10, without pore, technical duplicate", "result": 320, "unit": "µg/mL"},
      {"measurement": "Minimum Inhibitory Concentration, EKO-35", "setting": "E. coli EKO-35; [5]", "result": 320, "unit": "µg/mL"},
      {"measurement": "Minimum inhibitory concentration (MIC), K-12", "setting": "[2]; Table 10, without pore", "result": 320, "unit": "µg/mL"},
      {"measurement": "Minimum Inhibitory Concentration, K-12", "setting": "[2]; Table 13A, non-porinated", "result": 320, "unit": "µg/mL"}
    ]}
  ]
}
